Results on three molecules are retold here after article PMC7702301 (Biochemical Journal, 2020).

One test concerns RIPK1. As to conditions: phosphorylation mimicked by a glutamate residue; cited from earlier work.
In another test the target is T1, dephosphorylated MerTK (Homo sapiens, UniProt Q12866).
T1 sequence (Q12866 528-999): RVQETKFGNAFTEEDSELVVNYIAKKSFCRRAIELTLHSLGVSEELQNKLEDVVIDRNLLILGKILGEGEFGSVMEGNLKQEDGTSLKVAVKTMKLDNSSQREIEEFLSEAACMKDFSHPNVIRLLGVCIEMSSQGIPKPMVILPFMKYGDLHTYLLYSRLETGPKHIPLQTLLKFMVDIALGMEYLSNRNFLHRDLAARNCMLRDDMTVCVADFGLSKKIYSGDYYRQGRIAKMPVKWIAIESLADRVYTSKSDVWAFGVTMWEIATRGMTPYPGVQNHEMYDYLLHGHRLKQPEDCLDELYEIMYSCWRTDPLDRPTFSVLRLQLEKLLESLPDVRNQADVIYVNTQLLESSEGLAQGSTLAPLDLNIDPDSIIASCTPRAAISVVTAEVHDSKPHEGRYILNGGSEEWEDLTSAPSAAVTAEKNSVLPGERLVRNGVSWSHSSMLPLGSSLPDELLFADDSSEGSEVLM
The test can be described thus: Surface plasmon resonance, dephosphorylated MerTK. It is filed as binding. Background: SPR reads the build-up and loss of mass on a sensor chip optically.

Test [1] concerns the target T2, MerTK (Homo sapiens, UniProt Q12866).
T2 sequence (Q12866 528-999): T1 sequence (Q12866 528-999)
The test can be described thus: Surface plasmon resonance, MerTK. In kind it is binding. As to conditions: read-out: residence times.

For test [2], the system named is MerTK. As to conditions: cited from earlier work.

`CN1C(=O)C(Cc2c[nH]c3ccccc23)NC1=S` (stereo not shown) [Nec-1]: in the test on RIPK1, the “drop of affinity for RIPK1 upon phosphorylation of Ser161” value is approximately 10 fold.
Consider `Cc1ccc(C(=O)Nc2ccc(Oc3cc4cnn(C)c4cc3-c3cn[nH]c3)c(F)c2)c(=O)n1-c1ccc(F)cc1` [merestinib], for which the residence time at dephosphorylated MerTK is more than 120 min.
Take `CCc1nc(C(N)=O)c(Nc2ccc(N3CCC(N4CCN(C)CC4)CC3)c(OC)c2)nc1NC1CCOCC1` [gilteritinib]: the residence time on MerTK [1] was less than 1 min. Also, the “off-target activity against MerTK” value in the test on MerTK [2] was “double-digit nanomolar”.
